# Tests used:
# Type in all cases: cell-based
# [1] = test system: psoriasin (S100A7) mRNA and protein in HCC-EV1 and HCC-BR116 cells; assay: Northern and Western blot of psoriasin expression after etoposide treatment; conditions: BRCA1 deficient cells (HCC-EV1), 1 μM etoposide for 24 hours
# Method: (§1) Cells were either untreated (lanes 1 and 2) or treated with 1 μM etoposide for 24 hours. The blot was reprobed for GAPDH as a loading control, (b) A Western blot evaluating the expression of psoriasin protein in the HCC-EV1 cell line (lanes 1 and 3) and the HCC-BR116 cell line (lanes 2 and 4). Cells were either untreated (lanes 1 and 2) or treated with 1 μM etoposide for 24 hours. The blot was reprobed for GAPDH as a loading control, (c) A 72 hour dose inhibition study investigating the effect of psoriasin expression on the response to etoposide in the HP1 and MDA-MB-231-zeo cell lines. The IC50 values were calculated from the sigmoidal dose response curves. The results represent three independent experiments. (Symbols □=HP1 cell line (psoriasin expression) ▴=MDA-MB-231-zeo (empty vector control), (d) A 72 hour dose inhibition study investigating the effect of loss of psoriasin expression on the response to etoposide in the HCCEV1 cell line. The IC50 values were calculated from the sigmoidal dose response curves. The results represent three independent experiments. (Symbols ▴=siRNA to psoriasin □=scrambled sequence). […]
# HCC-EV1 cell line = assay: 72 hour dose inhibition study of etoposide in HCC-EV1 cells, psoriasin siRNA vs scrambled sequence; conditions: BRCA1 deficient HCC-EV cells, 72 h exposure, from IC50 values, three independent experiments
# Method: as §1, with “response curves. […] (Symbols □=HP1” for “response curves. The results represent three independent experiments. (Symbols □=HP1”
# For drug sensitivity assays HCC-EV and HCCBR cells were seeded onto 24-well tissue culture plates at a density of 100,000 cells per well. […] After 72 hours of continuous drug exposure, cells were detached with trypsin and counted using a Z2 particle and size analyser (Coulter, Miami, Fla.). […]
# [2] = test system: HP1 and MDA-MB-231-zeo cell lines; assay: 72 hour dose inhibition study of etoposide, psoriasin-expressing HP1 vs empty vector MDA-MB-231-zeo cells; conditions: HP1 (exogenous psoriasin) vs MDA-MB231-zeo vector control; 72 h continuous exposure; from IC50 values; three independent experiments
# Method: as §1, with “response curves. […] (Symbols □=HP1” for “response curves. The results represent three independent experiments. (Symbols □=HP1”
# The HCC-EV1 cell line was treated with scrambled or psoriasin specific siRNA and after 24 hours seeded at 100,000 cells per well on 24 well tissue culture plates. […] After 72 h of continuous drug exposure, cells were detached with trypsin, and counted using a Z2 particle and size analyzer (Coulter, Miami, Fla.). […]
smiles,measurement,setting,value
COc1cc([C@@H]2c3cc4c(cc3[C@@H](O[C@@H]3O[C@@H]5CO[C@@H](C)O[C@H]5[C@H](O)[C@H]3O)[C@H]3COC(=O)[C@H]23)OCO4)cc(OC)c1O [etoposide],expression of psoriasin mRNA and protein following etoposide treatment,[1],enhanced expression
same,increase in resistance to etoposide induced by inhibition of endogenous psoriasin,HCC-EV1 cell line,greater than 20 fold
same,increase in sensitivity to etoposide induced by expression of psoriasin,[2],4000 fold
